Data as given in patent US20190125745A1, “TREATMENT AND DIAGNOSIS OF CANCER” (Rgenix, Inc., priority 2014, published 2019).
Counter-ions that a name gives are not always drawn.

What was measured:
ApoE expression = ApoE expression by qRT-PCR in human melanoma cells
Experimental: (A-B) Parental MeWo cells were incubated in the presence of DMSO or GW3965 at the indicated concentrations. After 48 hours, total RNA was extracted, and the levels of ApoE (A) and DNAJA4 (B) were determined by qRT-PCR. n=3. (C) Cell invasion by 1×10^5 parental MeWo cells pre-treated with GW3965 or DMSO for 48 hours. n=6-7. p-values based on a one-sided student's t-test. […] (D) Endothelial recruitment by 5×10^4 parental MeWo cells pre-treated with GW3965 or DMSO for 48 hours. n=6-7. p-values based on a one-sided student's t-test. (E) Mice were fed with grain-based chow diet containing GW3965 (20 mg/kg) or a control diet. After 10 days, 4×10^4 parental MeWo cells were tail-vein injected into mice, and the mice were continuously fed with GW3965-containing chow or a control diet throughout the experiment.
(A-C) MeWo (A), HT-144 (B), and WM-266-4 (C) human melanoma cells were treated with GW3965 or T0901317 at the indicated concentrations for 48 hours, and the expression levels of ApoE were analysed by qRT-PCR. n=3. (D) Extracellular ApoE protein levels, quantified by ELISA, in serum-free conditioned media collected from HT-144 human melanoma cells treated with DMSO, GW3965, or T0901317 at 1 μM for 72 hours. n=3-4. […] (I-J) Relative ApoE expression, quantified by qRT-PCR, in MeWo (I) and HT-144 (J) cells transduced with a control shRNA or shRNAs targeting LXRα or LXRβ and subsequently treated with DMSO, GW3965, or T0901317 at 1 μM for 48 hours. n=3-9. (K) Extracellular ApoE protein levels, measured by ELISA, in serum-free conditioned media harvested from HT-144 cells transduced with a control shRNA or an shRNA targeting LXRα or LXRβ and treated with DMSO or GW3965 at 1 μM for 72 hours. n=3.
RNA was extracted from whole cell lysates using the Total RNA Purification Kit (17200, Norgen, Thorold, Canada). 600 ng of total RNA was then reverse transcribed into cDNA using the cDNA First-Strand Synthesis Kit (18080-051, Invitrogen), and quantitative real-time PCR amplification was performed as previously described (Pencheva et al., 2012) using an ABI Prism 7900HT Real-Time PCR System (Applied Biosystems, Austin, Tex.). […]
For every sample, 600 ng of RNA was reverse transcribed into cDNA using the cDNA First-Strand Synthesis kit (Invitrogen). […] Each reaction was carried out in quadruplicates, and ApoE mRNA expression levels were measured by quantitative real-time PCR amplification using an ABI Prism 7900HT Real-Time PCR System (Applied Biosystems). The relative ApoE expression was determined using the ΔΔCt method.

[1] = test system: B16F10 mouse melanoma cells; assay: B16F10 tumor growth and metastasis with LXR or ApoE knockdown or knockout; assay type: in vivo
Experimental: FIG. 12. Therapeutic Delivery of LXR Agonists Upregulates Melanoma-Derived and Systemic ApoE Expression. (A-B) ApoE expression levels, quantified by qRT-PCR, in subcutaneous tumors formed by B16F10 mouse melanoma cells injected into C57BL/6 mice. After 5-mm^3 tumor formation, mice were fed a control diet or diet containing GW3965 (20 mg/kg) (A) or T0901317 (20 mg/kg) (B) for 7 days. n=3-4. (C-E) ApoEtranscript expression in primary tumors (C), lung metastases (D), and brain metastases (E) formed by MeWo human melanoma cells grafted onto NOD Scid mice that were administered control chow or chow supplemented with GW3965 (20 mg/kg). ApoE levels were assessed on day 35 (C), day 153 (D), and day 34 (E) post-injection of the cancer cells. n=3-5. (F) Relative expression levels of LXRα, LXRβ, and ApoE were determined by qRT-PCR in B16F10 mouse melanoma cells expressing a control hairpin or an shRNA targeting mouse LXRα (sh_mLXRα), mouse LXRβ (sh_mLXRβ), or mouse ApoE (sh_mApoE). (G-H) ApoE (G) and ABCA1(H) mRNA levels, measured by qRT-PCR, in B16F10 cells expressing a control shRNA or shRNAs targeting mouse LXRβ or mouse ApoE. The cells were treated with DMSO or GW3965 at 5 μM for 48 hours. n=3. (I) ABCA1 mRNA levels, measured by qRT-PCR, in systemic white blood cells extracted from LXRα −/− or LXRβ −/− mice fed a control diet or a GW3965-supplemented diet (20 mg/kg) for 10 days. n=3-4. (J) Relative expression of ApoE mRNA, expressed as the frequency of SAGE tags, in mouse skin and lung tissues was determined using the public mSAGE Expression Matrix database available through the NCI-funded Cancer Genome Anatomy Project (CGAP). (K) Relative expression of ApoE mRNA, determined by qRT-PCR, in MeWo melanoma cells dissociated from lung metastatic nodules (LM2) or primary tumors relative to control unselected MeWo parental cells. n=3.
FIG. 13. LXRβ Agonism Suppresses Melanoma Tumor Growth and Metastasis by Inducing Melanoma-Derived and Systemic ApoE Expression. […] (B) Quantification of ApoE protein expression based on western blots shown in (A). […] Representative tumor images extracted at the end point are shown in the right panel. n=6-18. (E) ApoE transcript levels, quantified by qRT-PCR, in systemic white blood cells extracted from LXRα −/− or LXRβ −/− mice fed a control diet or a GW3965-supplemented diet (20 mg/kg) for 10 days. n=3-5. (F) Subcutaneous tumor growth by 5×10^4 B16F10 control cells or B16F10 cells expressing an shRNA targeting mouse ApoE (sh_mApoE) in C57BL/6-WT or ApoE−/− mice. […] Representative images of tumors extracted at the final day of measurement (d12) are shown on the right. n=8-18. (G) Lung colonization by 5×10^4 B16F10 cells transduced with a control shRNA or sh_mApoE and intravenously injected into C57BL/6-WT or ApoE−/− mice. […] Lung metastasis was quantified on d22 by bioluminescence imaging. Representative lungs extracted at the end point (d22) are shown in the right panel. n=5-10. (H) ApoE protein expression, determined by blinded immunohistochemical analysis, in non-metastatic (n=39) and metastatic (n=34) primary melanoma skin lesion samples obtained from patients at MSKCC. The fraction of ApoE-positively staining cell area was quantified as a percentage of total tumor area.

## O=C(O)Cc1cccc(OCCCN(Cc2cccc(C(F)(F)F)c2Cl)CC(c2ccccc2)c2ccccc2)c1 [GW3965 108, 3-[3-[N-(2-Chloro-3-trifluoromethylbenzyl)-(2,2-diphenylethyl)amino]propyloxy] phenylacetic acid hydrochloride]
ApoE expression
  potency of inducing ApoE expression in vitro: potently induce
[1]; ApoE−/− mice, diet 20 mg/kg
  metastasis suppression upon genetic inactivation of ApoE: only partially prevented
  suppressing tumor growth in mice genetically inactivated for ApoE: completely ineffective
[1]; B16F10 cells, 5 μM, 48 hours
  induction of ApoE expression upon knockdown of mouse melanoma-cell LXRβ: abrogated
[1]; diet 20 mg/kg
  inhibition of metastasis with both melanoma-cell ApoE knockdown and genetic inactivation of systemic ApoE: completely blocked
[1]; diet 20 mg/kg, 7 days
  suppression of tumor growth with melanoma-cell LXRβ knockdown: unable to prevent
  tumor growth inhibition upon depletion of melanoma-cell ApoE: did not prevent
[1]; lung colonization, diet 20 mg/kg
  metastasis-suppressive effect upon knockdown of melanoma-cell ApoE: partially prevented
[1]; white blood cells, diet 20 mg/kg, 10 days
  upregulation of systemic ApoE expression in LXR null mice: abrogated in LXRβ −/−, but not in LXRα −/− mice
